One may read the inhibition as the change of the read-out against control, counted positive when it falls.

For assay [1], the target named is Glycogen synthase kinase-3 beta (Homo sapiens) (UniProt P49841). Briefly: Inhibition of GSK3B (unknown origin) at 500 nM.
The target in assay [2] is Aurora kinase B (Homo sapiens) (UniProt Q96GD4). The assay can be described thus: Inhibition of AURKB (unknown origin) at 500 nM.
The target of assay [3] is Tyrosine-protein kinase Yes (Homo sapiens) (UniProt P07947). The assay can be described thus: Inhibition of YES1 (unknown origin) at 500 nM.
In assay [4] the target is Mitogen-activated protein kinase 1 (Homo sapiens) (UniProt P28482). Briefly: Inhibition of MAPK1 (unknown origin) at 500 nM.
The target of assay [5] is Protein kinase C beta type (Homo sapiens) (UniProt P05771). The assay can be described thus: Inhibition of PRKCB1 (unknown origin) at 500 nM.
The target in assay [6] is Serine/threonine-protein kinase pim-2 (Homo sapiens) (UniProt Q9P1W9). The assay can be described thus: Inhibition of PIM2 (unknown origin) at 500 nM.
For assay [7], the target named is Tyrosine-protein kinase Fgr (Homo sapiens) (UniProt P09769). The assay can be described thus: Inhibition of FGR (unknown origin) at 500 nM.
Chain of Tyrosine-protein kinase Fgr (Homo sapiens) (P09769 2-529 limits assumed): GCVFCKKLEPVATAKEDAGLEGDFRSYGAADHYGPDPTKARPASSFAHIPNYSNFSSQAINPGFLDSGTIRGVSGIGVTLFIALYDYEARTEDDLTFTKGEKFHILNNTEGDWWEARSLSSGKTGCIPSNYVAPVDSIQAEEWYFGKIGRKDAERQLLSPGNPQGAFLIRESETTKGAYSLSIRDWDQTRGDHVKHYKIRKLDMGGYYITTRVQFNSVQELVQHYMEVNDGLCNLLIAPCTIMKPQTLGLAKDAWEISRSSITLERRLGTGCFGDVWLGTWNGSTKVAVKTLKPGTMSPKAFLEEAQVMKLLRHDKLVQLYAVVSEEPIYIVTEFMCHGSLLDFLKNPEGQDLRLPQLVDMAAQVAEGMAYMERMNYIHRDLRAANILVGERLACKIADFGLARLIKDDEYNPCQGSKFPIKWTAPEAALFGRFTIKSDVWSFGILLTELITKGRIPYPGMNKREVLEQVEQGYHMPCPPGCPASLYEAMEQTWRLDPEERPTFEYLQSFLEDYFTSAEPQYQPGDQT
Assay [8] has as its target Tyrosine-protein kinase SYK (Homo sapiens) (UniProt P43405). Briefly: Inhibition of SYK (unknown origin) at 500 nM.
In assay [9] the target is T1, Inhibitor of nuclear factor kappa-B kinase subunit beta (Homo sapiens) (UniProt O14920).
T1 sequence (whole entry): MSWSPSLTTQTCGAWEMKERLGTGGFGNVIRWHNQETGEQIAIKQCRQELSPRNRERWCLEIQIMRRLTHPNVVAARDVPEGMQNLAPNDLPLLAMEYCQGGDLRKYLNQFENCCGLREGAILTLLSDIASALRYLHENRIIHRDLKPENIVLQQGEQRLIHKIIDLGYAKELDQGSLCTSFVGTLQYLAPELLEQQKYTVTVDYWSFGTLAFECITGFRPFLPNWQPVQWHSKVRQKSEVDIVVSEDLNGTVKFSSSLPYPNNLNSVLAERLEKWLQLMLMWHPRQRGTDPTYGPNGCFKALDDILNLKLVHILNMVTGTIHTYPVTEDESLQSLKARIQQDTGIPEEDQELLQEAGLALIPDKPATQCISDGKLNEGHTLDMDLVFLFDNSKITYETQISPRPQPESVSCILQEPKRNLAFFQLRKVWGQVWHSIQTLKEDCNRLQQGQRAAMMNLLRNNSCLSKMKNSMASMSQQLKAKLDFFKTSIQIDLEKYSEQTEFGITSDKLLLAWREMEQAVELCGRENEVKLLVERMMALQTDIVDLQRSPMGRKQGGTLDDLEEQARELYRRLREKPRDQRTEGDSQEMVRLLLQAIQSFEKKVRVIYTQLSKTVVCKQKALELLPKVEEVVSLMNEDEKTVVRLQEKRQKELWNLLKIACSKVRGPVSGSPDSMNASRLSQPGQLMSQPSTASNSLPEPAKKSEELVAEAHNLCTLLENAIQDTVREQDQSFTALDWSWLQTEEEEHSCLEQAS
Briefly: Inhibition of IKBKB (unknown origin) at 500 nM.

Assay [10] addresses Macrophage colony-stimulating factor 1 receptor (Homo sapiens) (UniProt P07333). The assay can be described thus: Inhibition of CSF1R (unknown origin) at 500 nM.
The target in assay [11] is Focal adhesion kinase 1 (Homo sapiens) (UniProt Q05397). Briefly: Inhibition of PTK2 (unknown origin) at 500 nM.
Chain of Focal adhesion kinase 1 (Homo sapiens) (Q05397 2-1052 limits assumed): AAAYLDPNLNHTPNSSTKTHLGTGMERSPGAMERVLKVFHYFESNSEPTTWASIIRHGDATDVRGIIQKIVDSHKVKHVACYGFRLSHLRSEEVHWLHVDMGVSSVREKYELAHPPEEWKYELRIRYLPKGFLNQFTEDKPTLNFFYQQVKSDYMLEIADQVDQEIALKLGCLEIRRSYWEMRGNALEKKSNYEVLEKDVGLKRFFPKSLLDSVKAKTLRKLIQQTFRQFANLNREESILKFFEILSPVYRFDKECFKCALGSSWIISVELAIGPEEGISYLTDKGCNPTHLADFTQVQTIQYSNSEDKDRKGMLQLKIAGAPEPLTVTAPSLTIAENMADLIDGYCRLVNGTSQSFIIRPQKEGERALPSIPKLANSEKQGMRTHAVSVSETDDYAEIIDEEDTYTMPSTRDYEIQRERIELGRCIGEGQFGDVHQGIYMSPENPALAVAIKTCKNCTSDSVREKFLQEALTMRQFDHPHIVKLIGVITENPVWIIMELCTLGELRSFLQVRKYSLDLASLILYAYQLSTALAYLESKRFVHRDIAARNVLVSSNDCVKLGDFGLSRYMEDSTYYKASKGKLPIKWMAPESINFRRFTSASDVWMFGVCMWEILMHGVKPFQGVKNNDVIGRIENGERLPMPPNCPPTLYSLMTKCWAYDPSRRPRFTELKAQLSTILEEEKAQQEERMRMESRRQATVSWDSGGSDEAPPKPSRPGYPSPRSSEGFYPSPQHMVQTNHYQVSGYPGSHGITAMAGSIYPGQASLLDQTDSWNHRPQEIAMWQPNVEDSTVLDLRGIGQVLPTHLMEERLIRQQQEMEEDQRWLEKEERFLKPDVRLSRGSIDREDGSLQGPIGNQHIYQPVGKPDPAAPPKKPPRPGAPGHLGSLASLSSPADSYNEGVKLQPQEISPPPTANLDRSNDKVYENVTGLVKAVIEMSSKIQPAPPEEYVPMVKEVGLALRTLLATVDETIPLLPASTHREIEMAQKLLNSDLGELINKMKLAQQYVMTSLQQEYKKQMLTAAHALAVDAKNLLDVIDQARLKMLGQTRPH
The target of assay [12] is Vascular endothelial growth factor receptor 1 (Homo sapiens) (UniProt P17948). Briefly: Inhibition of FLT1 (unknown origin) at 500 nM.
The target in assay [13] is Platelet-derived growth factor receptor alpha (Homo sapiens) (UniProt P16234). The assay can be described thus: Inhibition of PDGFRA (unknown origin) at 500 nM.
The target of assay [14] is Hepatocyte growth factor receptor (Homo sapiens) (UniProt P08581). Briefly: Inhibition of MET (unknown origin) at 500 nM.
Assay [15] addresses Proto-oncogene tyrosine-protein kinase receptor Ret (Homo sapiens) (UniProt P07949). Briefly: Inhibition of RET (unknown origin) at 500 nM.
Assay [16] concerns the target Tyrosine-protein kinase ABL1 (Homo sapiens) (UniProt P00519). The assay can be described thus: Inhibition of ABL1 (unknown origin) at 500 nM.
Assay [17] addresses Platelet-derived growth factor receptor beta (Homo sapiens) (UniProt P09619). Briefly: Inhibition of PDGFRB (unknown origin) at 500 nM.
Assay [18] addresses T2, Ephrin type-A receptor 1 (Homo sapiens) (UniProt P21709).
T2 sequence (whole entry): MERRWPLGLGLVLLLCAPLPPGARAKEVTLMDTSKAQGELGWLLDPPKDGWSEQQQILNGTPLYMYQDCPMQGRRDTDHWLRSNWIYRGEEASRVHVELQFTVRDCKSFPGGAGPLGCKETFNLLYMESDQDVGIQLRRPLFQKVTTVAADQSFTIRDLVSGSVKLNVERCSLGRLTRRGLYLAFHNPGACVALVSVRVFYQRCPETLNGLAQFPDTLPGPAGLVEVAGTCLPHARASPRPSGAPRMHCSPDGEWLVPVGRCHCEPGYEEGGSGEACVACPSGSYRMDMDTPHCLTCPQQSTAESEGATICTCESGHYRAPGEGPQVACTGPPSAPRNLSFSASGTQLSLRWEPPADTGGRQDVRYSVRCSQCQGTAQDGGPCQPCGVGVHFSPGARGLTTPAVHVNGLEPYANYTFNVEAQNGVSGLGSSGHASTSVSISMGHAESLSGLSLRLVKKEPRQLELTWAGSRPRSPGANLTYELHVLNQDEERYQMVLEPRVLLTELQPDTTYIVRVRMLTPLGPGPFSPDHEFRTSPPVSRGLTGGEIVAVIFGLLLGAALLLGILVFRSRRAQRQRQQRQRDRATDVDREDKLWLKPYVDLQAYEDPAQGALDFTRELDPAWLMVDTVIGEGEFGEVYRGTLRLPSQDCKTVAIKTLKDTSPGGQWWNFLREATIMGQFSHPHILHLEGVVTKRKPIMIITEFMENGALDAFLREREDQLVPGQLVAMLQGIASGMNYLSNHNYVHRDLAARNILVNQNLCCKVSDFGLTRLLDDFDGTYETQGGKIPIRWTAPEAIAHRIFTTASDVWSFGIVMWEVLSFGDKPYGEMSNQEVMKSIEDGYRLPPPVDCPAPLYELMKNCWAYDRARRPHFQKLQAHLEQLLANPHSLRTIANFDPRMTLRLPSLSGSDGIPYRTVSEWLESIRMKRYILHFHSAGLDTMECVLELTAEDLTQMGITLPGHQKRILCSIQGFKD
The assay can be described thus: Inhibition of EPHA1 (unknown origin) at 500 nM.

Assay [19] addresses Tyrosine-protein kinase CSK (Homo sapiens) (UniProt P41240). Briefly: Inhibition of CSK (unknown origin) at 500 nM.
For assay [20], the target named is Receptor tyrosine-protein kinase erbB-4 (Homo sapiens) (UniProt Q15303). Briefly: Inhibition of ERBB4 (unknown origin) at 500 nM.
Assay [21] concerns the target Mitogen-activated protein kinase 8 (Homo sapiens) (UniProt P45983). Briefly: Inhibition of MAPK8 (unknown origin) at 500 nM.

Chain of Tyrosine-protein kinase CSK (Homo sapiens) (P41240 2-450 limits assumed): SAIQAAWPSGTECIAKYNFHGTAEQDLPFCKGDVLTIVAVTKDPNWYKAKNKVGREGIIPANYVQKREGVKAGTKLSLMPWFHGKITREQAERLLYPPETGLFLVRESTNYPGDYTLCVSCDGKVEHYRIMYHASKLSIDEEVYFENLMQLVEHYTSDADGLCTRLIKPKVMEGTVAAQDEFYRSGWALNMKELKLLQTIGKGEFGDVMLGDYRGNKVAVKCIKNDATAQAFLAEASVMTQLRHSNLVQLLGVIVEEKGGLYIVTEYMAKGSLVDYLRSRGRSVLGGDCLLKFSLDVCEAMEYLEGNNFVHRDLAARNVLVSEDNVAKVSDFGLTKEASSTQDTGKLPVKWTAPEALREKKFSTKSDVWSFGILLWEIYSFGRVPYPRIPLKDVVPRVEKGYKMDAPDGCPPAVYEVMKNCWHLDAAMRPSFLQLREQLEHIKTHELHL
Chain of Tyrosine-protein kinase ABL1 (Homo sapiens) (P00519 whole entry): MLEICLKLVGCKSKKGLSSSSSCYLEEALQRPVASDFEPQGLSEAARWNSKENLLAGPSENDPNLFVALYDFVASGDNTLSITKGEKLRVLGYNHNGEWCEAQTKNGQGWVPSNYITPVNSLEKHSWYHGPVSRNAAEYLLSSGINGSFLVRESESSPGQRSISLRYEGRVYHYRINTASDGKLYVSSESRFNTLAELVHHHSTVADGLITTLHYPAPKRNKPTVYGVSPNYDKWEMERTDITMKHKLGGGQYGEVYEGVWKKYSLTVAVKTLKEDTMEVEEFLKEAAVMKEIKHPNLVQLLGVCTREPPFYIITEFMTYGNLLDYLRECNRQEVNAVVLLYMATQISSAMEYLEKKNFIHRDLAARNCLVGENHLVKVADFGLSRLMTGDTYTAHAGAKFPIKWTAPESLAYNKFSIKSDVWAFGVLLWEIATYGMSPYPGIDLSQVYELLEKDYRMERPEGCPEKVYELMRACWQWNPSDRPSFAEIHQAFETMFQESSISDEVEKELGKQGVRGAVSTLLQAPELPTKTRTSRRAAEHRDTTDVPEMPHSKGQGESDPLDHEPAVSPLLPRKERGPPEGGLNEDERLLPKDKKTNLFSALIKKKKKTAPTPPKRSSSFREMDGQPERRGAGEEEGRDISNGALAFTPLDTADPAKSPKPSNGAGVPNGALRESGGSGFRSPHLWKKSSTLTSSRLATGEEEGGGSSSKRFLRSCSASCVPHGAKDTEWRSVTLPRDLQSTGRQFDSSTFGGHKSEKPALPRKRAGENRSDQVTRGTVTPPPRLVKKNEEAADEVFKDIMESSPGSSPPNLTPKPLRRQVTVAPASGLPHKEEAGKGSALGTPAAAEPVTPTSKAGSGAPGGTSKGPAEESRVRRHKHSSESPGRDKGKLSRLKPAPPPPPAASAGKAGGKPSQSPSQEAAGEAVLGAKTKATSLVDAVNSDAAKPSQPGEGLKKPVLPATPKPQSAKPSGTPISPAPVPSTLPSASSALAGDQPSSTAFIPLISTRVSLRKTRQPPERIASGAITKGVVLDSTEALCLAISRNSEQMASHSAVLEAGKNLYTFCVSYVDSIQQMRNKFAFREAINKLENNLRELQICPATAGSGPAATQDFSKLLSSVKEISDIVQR
Chain of Macrophage colony-stimulating factor 1 receptor (Homo sapiens) (P07333 whole entry): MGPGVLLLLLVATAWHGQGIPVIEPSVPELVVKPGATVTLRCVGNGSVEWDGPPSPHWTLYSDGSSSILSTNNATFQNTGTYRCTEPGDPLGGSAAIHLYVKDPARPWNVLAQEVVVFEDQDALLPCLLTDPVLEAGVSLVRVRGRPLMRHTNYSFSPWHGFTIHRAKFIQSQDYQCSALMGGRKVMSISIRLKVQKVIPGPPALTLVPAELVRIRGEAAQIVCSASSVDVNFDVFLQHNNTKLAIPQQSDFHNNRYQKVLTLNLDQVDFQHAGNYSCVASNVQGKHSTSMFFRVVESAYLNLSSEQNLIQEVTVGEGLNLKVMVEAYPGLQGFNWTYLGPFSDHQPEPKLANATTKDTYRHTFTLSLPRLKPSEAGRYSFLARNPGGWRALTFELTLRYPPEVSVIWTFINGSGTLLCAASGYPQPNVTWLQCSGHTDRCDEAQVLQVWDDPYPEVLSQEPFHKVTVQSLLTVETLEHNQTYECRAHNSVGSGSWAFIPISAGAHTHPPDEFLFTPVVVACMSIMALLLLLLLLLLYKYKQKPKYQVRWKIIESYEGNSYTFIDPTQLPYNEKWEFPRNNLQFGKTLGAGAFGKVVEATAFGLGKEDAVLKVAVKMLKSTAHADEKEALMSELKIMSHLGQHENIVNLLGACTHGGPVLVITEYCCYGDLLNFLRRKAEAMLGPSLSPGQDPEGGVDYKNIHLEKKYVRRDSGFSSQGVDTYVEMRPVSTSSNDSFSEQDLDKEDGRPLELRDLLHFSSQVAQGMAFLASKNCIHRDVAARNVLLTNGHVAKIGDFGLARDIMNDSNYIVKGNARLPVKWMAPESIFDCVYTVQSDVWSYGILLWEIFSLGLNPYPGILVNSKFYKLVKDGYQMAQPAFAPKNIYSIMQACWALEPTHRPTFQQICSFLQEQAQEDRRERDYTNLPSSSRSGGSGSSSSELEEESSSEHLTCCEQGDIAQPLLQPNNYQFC
Chain of Mitogen-activated protein kinase 8 (Homo sapiens) (P45983 whole entry): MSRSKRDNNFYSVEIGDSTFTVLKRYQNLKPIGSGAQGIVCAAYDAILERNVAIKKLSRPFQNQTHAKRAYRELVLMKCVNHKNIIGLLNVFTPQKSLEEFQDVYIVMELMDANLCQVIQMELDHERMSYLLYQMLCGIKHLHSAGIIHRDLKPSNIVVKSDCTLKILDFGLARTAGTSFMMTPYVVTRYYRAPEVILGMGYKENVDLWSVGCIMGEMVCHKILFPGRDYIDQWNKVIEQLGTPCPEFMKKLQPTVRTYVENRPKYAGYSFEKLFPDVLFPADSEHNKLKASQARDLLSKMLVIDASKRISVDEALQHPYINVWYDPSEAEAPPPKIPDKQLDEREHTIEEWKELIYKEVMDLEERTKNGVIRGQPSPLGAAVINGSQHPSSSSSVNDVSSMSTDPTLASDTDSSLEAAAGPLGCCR
Chain of Glycogen synthase kinase-3 beta (Homo sapiens) (P49841 whole entry, looked up): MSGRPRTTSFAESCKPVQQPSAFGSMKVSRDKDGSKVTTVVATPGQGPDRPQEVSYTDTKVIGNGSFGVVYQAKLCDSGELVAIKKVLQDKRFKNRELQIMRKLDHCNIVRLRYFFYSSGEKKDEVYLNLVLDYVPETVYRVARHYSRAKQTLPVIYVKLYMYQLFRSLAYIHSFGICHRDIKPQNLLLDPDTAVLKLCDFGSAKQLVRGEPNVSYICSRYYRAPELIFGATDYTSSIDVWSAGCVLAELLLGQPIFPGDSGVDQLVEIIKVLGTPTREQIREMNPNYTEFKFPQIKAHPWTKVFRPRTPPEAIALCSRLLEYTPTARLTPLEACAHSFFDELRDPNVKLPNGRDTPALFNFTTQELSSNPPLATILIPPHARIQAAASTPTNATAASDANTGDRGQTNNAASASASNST

In the case of `COc1ccc(C(=O)NCCN(C)C)cc1-c1cc2c(N[C@H](C)c3ccccc3)ncnc2s1`, the inhibition in [1] was 13%; in [2], -2%; in assay [3], 43%; in [4] it was -1%; in [5], -2%; in [6] it was -4%. The inhibition in assay [7] is 71%; in assay [8], 2%; in [9] it was 3%; in assay [10], 6%; in [11], 3%; in assay [12], -8%. The inhibition in assay [13] was -3%; in assay [14], -9%; in assay [15], 7%; in assay [16] it was 6%; in assay [17], 0%; in assay [18] it was 7%. In addition, the inhibition came out at 3% in assay [19] and 46% in assay [20].

Consider `COc1cc(CO)ccc1-c1cc2c(Nc3ccc(F)c(Cl)c3)ncnc2s1`, for which the inhibition was 4% in assay [1]; 7% in [2]; 14% in assay [3]; 6% in assay [4]; -2% in assay [5]; 6% in assay [6]. Also, the inhibition in [7] was 11%; in assay [8] it was 11%; in assay [9] it was 1%; in assay [10], 4%; in assay [21], 14%; in [11], 16%. Besides, the inhibition in assay [12] is 2%; in assay [13] it was 5%; in [14], -5%; in assay [15] it was 16%; in [16], 19%; in assay [17], -3%. In addition, the figures for the inhibition in assay [18], in assay [19] and in assay [20] were 12%, 15% and 31%, respectively.

In the case of `C#Cc1cccc(Nc2ncnc3cc(OCCOC)c(OCCOC)cc23)c1` [ERLOTINIB], the inhibition in assay [1] is -8%; in [2] it was 44%; in assay [5], -2%; in [7], 42%; in assay [9] it was -5%; in assay [10] it was 38%. The inhibition in [11] is -3%; in assay [12] it was 17%; in [14], 11%; in assay [15], 64%; in assay [16], 75%; in assay [17], -5%. In addition, the inhibition in [18] amounted to 3%; in [19] it was 8%; in assay [20], 78%.

As to `C[C@@H](Nc1ncnc2sc(-c3ccc(C(=O)NCCN(C)C)cc3)cc12)c1ccccc1`, the inhibition is 5% in assay [1]; 17% in assay [2]; 23% in assay [3]; 9% in assay [4]; 2% in assay [5]; 3% in assay [6]. Also, the inhibition is 18% in assay [7]; 7% in assay [8]; 7% in assay [9]; 8% in assay [10]; 38% in assay [21]; 7% in assay [11]. In addition, the inhibition is 1% in assay [12]; 15% in assay [13]; -2% in assay [15]; 1% in assay [16]; 6% in assay [17]; 11% in assay [18]. Besides, the results for the inhibition in assay [19] and in assay [20] were 10% and 14%, respectively.

With `C[C@@H](Nc1ncnc2sc(-c3ccccc3C(N)=O)cc12)c1ccccc1`, the inhibition worked out at 6% in assay [1]; 2% in assay [2]; 10% in assay [3]; 9% in assay [4]; 3% in assay [5]; 0% in assay [6]. Further, the inhibition in [7] is 2%; in assay [8] it was 6%; in assay [9], 6%; in [10], 3%; in assay [21], 26%; in assay [11], 5%. The inhibition is 4% in assay [12]; -7% in assay [13]; -5% in assay [15]; -5% in assay [16]; 6% in assay [17]; 11% in assay [18]. The values for the inhibition in assay [19] and in assay [20] were 12% and 10%, respectively.

Regarding `C#Cc1cccc(Nc2ncnc3sc(-c4ccc(CO)cc4OC)cc23)c1`, the inhibition in [1] was 8%; in assay [2], 21%; in [3], 8%; in assay [4] it was 1%; in [5] it was -2%; in assay [6] it was 11%. Further, the inhibition is 11% in assay [7]; 16% in assay [8]; -4% in assay [9]; -1% in [10]; 3% in assay [21]; 0% in [11]. The inhibition in assay [12] was -7%; in assay [13] it was -9%; in assay [15] it was 0%; in assay [16], -3%; in assay [17], 13%; in assay [18] it was 2%. Further, the values for the inhibition in assay [19] and in assay [20] were 8% and 12%, respectively.

The record behind these values is ChEMBL document CHEMBL3758163, “Extended structure-activity study of thienopyrimidine-based EGFR inhibitors with evaluation of drug-like properties” (Eur J Med Chem, 2016).
